Key:
[1] = Oil spreading time on human inner forearm (spreadability factor S^R); assay type: physicochemical; conditions: 4 μL oil, 12 mm×8 mm ellipse on inner forearm; for Relative Spreading Time (spreadability factor S^R): normalized to oleyl oleate, data of present work; for spreading time: two panelists in duplicate
Method: As for oil “spreadability factor”, S^R, a semi-quantitative assay was developed by applicants to determine the spreading time for the different oils that have the potential to be used in microemulsions. First, an elliptic shape with 12 mm×8 mm diameters was marked on the inner forearm of a panelist. Because of the textural orientation of the skin, the spreading trace is usually in an elliptic shape. […] According to the test, 4 μL of the tested oil was dosed in the center of the area. The time when the oil arrived at the marked outline was recorded as the spreading time of the oil. The data were obtained on two panelists with duplicate tests for each oil. The average values were taken as the results. The spreading time of oleyl oleate was than used to normalize the measured values. For example, the spreading time for oleyl oleate is 1.3+0.03 minutes for IPM so the relative spreading time for IPM is 0.5/1.3=0.4. Thus, the spreadability factor, S^R, is ratio of spread rate of selected oil (measured in minutes) to spread rate of oleyl oleate (also measured in minutes).
Using this test, examples of oil spreading times are noted below: […]

[2] = Cognis spreading area over fixed time, converted using oleyl oleate as control; cited from earlier work
[3] = Viscosity, ARES Rheometer, strain controlled mode; assay type: physicochemical; conditions: 20-23° C.
Text: The ARES Rheometer manufactured by Rheometric Scientific™ was used for measuring viscosities in strain controlled mode. Fluid behavior of the microemulsions is different from conventional skin cleansers. They are Newtonian liquids, so the viscosity is constant with varying shear rate or time. […] As noted, the viscosities of the two microemulsions are much lower than for the competitors' liquid cleansers. However, low viscosity may ease penetration into crevices. Make-up removal efficacy may be directly related to product viscosity, i.e., an increased viscosity of a product caused a reduction in make-up removal. […] Pond's Clear Solutions® Deep Pore Foaming cleanser has an even lower viscosity than the microemulsions. It is packaged in a bottle with aeration upon dispensing, providing a thick and creamy foam. Microemulsions can be used as a cleansing milk or impregnated onto a non-woven.
To simulate the effect of sebum dissolution in washing process on the viscosity of the microemulsion, 2% model sebum was dissolved in microemulsion #1. From the results, one can expect that the good properties of the microemulsion, i.e., solvency and low viscosity, will be maintained during the washing process.

Row | Molecule | Relative Spreading Time (spreadability factor S^R) [1] | Relative Spreading Time [2] | also measured
1 | CCCCCCCCOCCCCCCCC [Cetiol ® OE: Di-N-Octyl Ether, Di-N-Octyl Ether] | 0.2 | – | –
2 | CC(C)CCCC(C)CCCC(C)CCCCC(C)CCCC(C)CCCC(C)C (centres unmarked) [Squalane] | 1.0 | – | –
3 | CCCCCCCCCCCCCC(=O)OC(C)C [Isopropanol Myristrate] | 0.4 | 0.4 | spreading time [1]: 0.5 min
4 | O [Water] | – | – | Viscosity at Shear Rate 10 s^−1 [3]: 1 mPa-s
5 | Pentahydrosqualene | 2.5 | – | –
6 | CCCCCCCC(=O)OCC(COC(=O)CCCCCCC)OC(=O)CCCCCCC [Glycerol Tricaprylate] | 0.9 | – | –
7 | CCCCCCCC/C=C\CCCCCCCCOC(=O)CCCCCCC/C=C\CCCCCCCC [Oleyl Oleate, reference compound] | 1 | 1 | spreading time [1]: 1.3 ± 0.03 min
8 | Dioctyl Cyclohexane | – | 0.5 | –
9 | CC(C)=CCC/C(C)=C/CC/C(C)=C/CC/C=C(\C)CC/C=C(\C)CCC=C(C)C [Squalene] | 0.8 | – | –
10 | CCCCCCCC/C=C\CCCCCCCCCCCC(=O)OCCCCCCCC/C=C\CCCCCCCC [Oleyl Eructate] | – | 1.2 | –
11 | CCCCCCCC/C=C\CCCCCCCCO [Oleyl Alcohol] | – | 0.6 | –
12 | CCCCCCCCCCCCCCCC(=O)OC(C)C [Isopropanol Palmitate] | 0.7 | – | –
13 | CCCCCCCCCCC(CO)CCCCCCCC (centres unmarked) [Octyl Dodecanol] | – | 0.7 | –
